We go through four molecules from patent US6310091A, “Fungicidal saponin, CAY-1, and isolation thereof from Capsium species fruit” (The United States of America as represented by the …, priority 2000, dated 2001).

Read-outs that look alike come from different tables or passages of the source.

The subject of experiment [1] is Pneumocystis carinii. The experiment can be described thus: Effect on Pneumocystis carinii viability (ATP-driven bioluminescent assay). The experiment is classed as cell-based. To be noted: Pneumocystis carinii, read-out: Percent of Control Mean. The method, then: 3. Pneumocystis carinii. The effect of CAY-1 on Pneumocystis carinii was determined as described previously [Cushion et al., Antimicrob. Agents Chemother., 1997, 41:379-384, herein incorporated by reference]. This assay is based on an ATP-driven bioluminescent reaction and was used to determine the concentration of CAY-1 which decreased the P. carinii ATP pools.

Experiment [2] deals with Candida species. To be noted: a number of Candida species; cited from earlier work.

For `CC1(C)S[C@@H]2[C@H](NC(=O)[C@H](N)c3ccccc3)C(=O)N2[C@H]1C(=O)O` [Ampicillin, reference compound], the activity at 29 µM in experiment [1] (24 h, Day 1, 10 μg/ml, 29 μM) came out at 96%; in experiment [1] (48 h, Day 2, 10 μg/ml, 29 μM), 94.7%; in experiment [1] (72 h, Day 3, 10 μg/ml, 29 μM) it was 94.8%.
Regarding `N=C(N)c1ccc(OCCCCCOc2ccc(C(=N)N)cc2)cc1` [Pentamidine, reference compound], the activity at 2.9 µM was 46.2% in experiment [1] (24 h), 22% in experiment [1] (48 h) and 3.9% in experiment [1] (72 h). Further, the activity at 29 µM in experiment [1] (24 h) was 5.4%; in experiment [1] (48 h) it was 3.5%; in experiment [1] (72 h) it was 1.2%.
Take `CC1(C)[C@@H](O[C@@H]2OC[C@H](O[C@@H]3O[C@H](CO)[C@@H](O)[C@H](O)[C@H]3O[C@@H]3OC[C@H](O)[C@H](O)[C@H]3O)[C@H](O)[C@H]2O[C@@H]2O[C@H](CO)[C@@H](O)[C@H](O)[C@H]2O)CC[C@]2(C)[C@H]3CC[C@]45OC[C@@]6(CC[C@](C)(C=O)C[C@H]64)[C@H](O)C[C@@]5(C)[C@]3(C)CC[C@@H]12` [deglucocyclamin]: the inhibitory properties entry in experiment [2] is listed as “inhibitory properties”.
Turning to cyclainorin, in experiment [2], the inhibitory properties result is “inhibitory properties”.
